# Measured values: US20230365537A1, “POLO LIKE KINASE 4 INHIBITORS” (ORIC Pharmaceuticals, Inc., priority 2021, published 2023)
# How the values were obtained:
# human recombinant PLK4 = human recombinant PLK4 (Homo sapiens (Human), UniProt O00444); test: PLK4 Biochemical Assay (ADP-Glo); conditions: 0.5 nM PLK4, 8.0 µM ATP, 4.7 µM MBP, 6 hours at RT
# Procedure, shortened: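 Recombinant human PLK4 (added at 1.0 nM) was preincubated 15 min at RT with compound in 50 mM HEPES pH 7.5, 10 mM MgCl2, 1 mM EGTA, 1 mM DTT, 0.01% Brij-35, 0.01% BSA. ADP formed was detected by ADP-Glo luminescence (40 min ATP depletion, 30 min detection). IC50 came from a four-parameter fit.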
# [1] = target: human recombinant Aurora A (Homo sapiens (Human), UniProt O14965); test: Aurora A Kinase Biochemical Assay (ADP-Glo); conditions: ratio of Aurora A IC50 to PLK4 IC50 (selectivity)
# [2] = target: human recombinant Aurora B (Homo sapiens (Human), UniProt Q96GD4); test: Aurora B Kinase Biochemical Assay (ADP-Glo); conditions: ratio of Aurora B IC50 to PLK4 IC50 (selectivity)
# Procedure, shortened: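 Recombinant human Aurora B (20 nM in pH 7.5 HEPES buffer with MgCl2, EGTA, DTT, Brij-35, BSA) preincubated with compound 15 min at RT. ADP formed quantified by ADP-Glo luminescence after ATP depletion (40 min) and detection (30 min). IC50 from four-parameter non-linear regression.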
# human recombinant Aurora A, sequence (O14965 whole entry): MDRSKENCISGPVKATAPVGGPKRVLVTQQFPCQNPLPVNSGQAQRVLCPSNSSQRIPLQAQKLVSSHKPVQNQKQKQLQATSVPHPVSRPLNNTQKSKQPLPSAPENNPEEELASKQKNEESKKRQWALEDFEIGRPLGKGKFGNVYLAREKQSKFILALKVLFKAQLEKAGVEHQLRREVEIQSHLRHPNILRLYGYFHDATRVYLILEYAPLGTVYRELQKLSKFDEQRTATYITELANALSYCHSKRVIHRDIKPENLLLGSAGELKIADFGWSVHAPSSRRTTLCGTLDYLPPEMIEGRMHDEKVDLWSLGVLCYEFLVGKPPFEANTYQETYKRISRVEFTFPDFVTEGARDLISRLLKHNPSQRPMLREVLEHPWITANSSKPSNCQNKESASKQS
# human recombinant Aurora B, sequence (Q96GD4 whole entry): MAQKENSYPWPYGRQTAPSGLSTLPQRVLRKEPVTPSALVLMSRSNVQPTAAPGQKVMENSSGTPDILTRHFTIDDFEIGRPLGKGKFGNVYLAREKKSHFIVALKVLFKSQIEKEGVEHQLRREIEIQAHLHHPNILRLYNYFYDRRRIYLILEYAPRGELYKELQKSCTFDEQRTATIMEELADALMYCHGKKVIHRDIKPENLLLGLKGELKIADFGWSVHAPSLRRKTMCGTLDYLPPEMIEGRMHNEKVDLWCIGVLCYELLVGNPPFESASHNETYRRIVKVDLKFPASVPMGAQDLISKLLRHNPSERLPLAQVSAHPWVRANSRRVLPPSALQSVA
# human recombinant PLK4, sequence (O00444 whole entry): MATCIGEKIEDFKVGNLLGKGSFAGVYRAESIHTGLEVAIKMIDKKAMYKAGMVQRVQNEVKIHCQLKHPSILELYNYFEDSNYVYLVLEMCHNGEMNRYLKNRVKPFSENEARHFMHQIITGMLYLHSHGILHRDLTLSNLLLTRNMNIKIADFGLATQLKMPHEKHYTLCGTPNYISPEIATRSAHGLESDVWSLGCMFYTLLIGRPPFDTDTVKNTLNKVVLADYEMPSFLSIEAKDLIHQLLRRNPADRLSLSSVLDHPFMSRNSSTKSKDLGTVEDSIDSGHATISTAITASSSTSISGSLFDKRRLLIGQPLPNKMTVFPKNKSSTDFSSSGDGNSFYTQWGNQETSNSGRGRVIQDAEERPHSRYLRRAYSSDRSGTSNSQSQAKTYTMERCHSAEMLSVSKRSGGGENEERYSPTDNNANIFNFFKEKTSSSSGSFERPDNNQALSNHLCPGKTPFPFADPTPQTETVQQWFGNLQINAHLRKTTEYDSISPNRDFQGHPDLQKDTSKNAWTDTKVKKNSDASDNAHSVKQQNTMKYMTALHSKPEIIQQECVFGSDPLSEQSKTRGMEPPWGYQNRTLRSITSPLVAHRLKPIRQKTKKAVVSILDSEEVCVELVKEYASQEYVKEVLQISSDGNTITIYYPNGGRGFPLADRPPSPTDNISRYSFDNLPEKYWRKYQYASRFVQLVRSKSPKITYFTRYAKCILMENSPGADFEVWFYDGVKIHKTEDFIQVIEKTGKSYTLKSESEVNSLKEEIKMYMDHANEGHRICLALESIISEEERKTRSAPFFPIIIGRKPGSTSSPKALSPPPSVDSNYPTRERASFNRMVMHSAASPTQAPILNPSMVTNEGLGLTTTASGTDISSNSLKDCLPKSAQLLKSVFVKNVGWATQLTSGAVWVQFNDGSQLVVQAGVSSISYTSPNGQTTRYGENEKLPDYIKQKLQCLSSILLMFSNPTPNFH
Compound,IC50 (human recombinant PLK4),[Aurora A IC50 (nM)]/[PLK4 IC50 (nM)] [1],[Aurora B IC50 (nM)]/[PLK4 IC50 (nM)] [2]
"COc1ccc2c(c1)[C@]1(C[C@H]1c1ccc3c(Nc4nn(C)cc4OC)n[nH]c3c1)C(=O)N2 [Example 79, (1R,2S)-5′-methoxy-2-{3-[(4-methoxy-1-methyl-1H-pyrazol-3-yl)amino]-1H-indazol-6-yl}spiro[cyclopropane-1,3′-indol]-2′(rH)-one]",91.9 nM,210.5378,6.986
"COc1ccc2c(c1)[C@]1(C[C@H]1c1ccc3c(Nc4nc(C)cnc4C)n[nH]c3c1)C(=O)N2.O=C(O)C(F)(F)F [Example 82, (1R,2S)-2-{3-[(3,6-dimethylpyrazin-2-yl)amino]-1H-indazol-6-yl}-5′-methoxyspiro[cyclopropane-1,3′-indol]-2′(1′H)-one]",6.21 nM,187.8524,38.55
"COc1ccc2c(c1)[C@]1(C[C@H]1c1ccc3c(Nc4cc(C)nn4CC(F)F)n[nH]c3c1)C(=O)N2 [Example 112, (1R,2S)-2-(3-{[1-(2,2-difluoroethyl)-3-methyl-1H-pyrazol-5-yl]amino}-1H-indazol-6-yl)-5′-methoxyspiro[cyclopropane-1,3′-indol]-2′(1′H)-one]",23.7 nM,197.5105,121.8987
"COc1cnc(C)nc1Nc1n[nH]c2cc([C@@H]3C[C@@]34C(=O)N(C)c3ccccc34)ccc12 [Example 122, (1R,2S)-2-{3-[(5-methoxy-2-methylpyrimidin-4-yl)amino]-1H-indezol-6-yl}-1′-methylspiro[cyclopropane-1,3′-indol]-2′(1′H)-one]",73.1 nM,11.1709,11.87
"COc1cnc(C)nc1Nc1n[nH]c2cc([C@@H]3C[C@@]34C(=O)Nc3ccccc34)ccc12 [Example 124, (1R,2S)-2-{3-[(5-methoxy-2-methylpyrimidin-4-yl)amino]-1H-indazol-6-yl}spiro[cyclopropane-1,3′-indol]-2′(1′H)-one]",13.6 nM,38.03,35.9
"COc1cnc(C)nc1Nc1n[nH]c2cc([C@@H]3C[C@]34C(=O)Nc3ccc(C)cc34)ccc12 [Example 127, (1S,2S)-2-{3-[(5-methoxy-2-methylpyrimidin-4-yl)amino]-1H-indazol-6-yl}-5′-methylspiro[cyclopropane-1,3′-indol]-2′(1′H)-one]",2200 nM,22.77,22.7686
"COc1cnc(C)nc1Nc1n[nH]c2cc([C@@H]3C[C@@]34C(=O)Nc3cccc(F)c34)ccc12 [Example 129, (1R,2S)-4′-fluoro-2-{3-[(5-methoxy-2-methylpyrimidin-4-yl)amino]-1H-indazol-6-yl}spiro[cyclopropane-1,3′-indol]-2′(1′H)-one]",34.5 nM,18.1054,17.1349
"COc1cnc(C)nc1Nc1n[nH]c2cc([C@@H]3C[C@]34C(=O)Nc3cccc(F)c34)ccc12 [Example 130, (1S,2S)-4′-fluoro-2-{3-[(5-methoxy-2-methylpyrimidin-4-yl)amino]-1H-indazol-6-yl}spiro[cyclopropane-1,3′-indol]-2′(1′H)-one]",603 nM,58.4811,60.1890

# The remaining lines, values ahead:
IC50 (human recombinant PLK4),[Aurora A IC50 (nM)]/[PLK4 IC50 (nM)] [1],[Aurora B IC50 (nM)]/[PLK4 IC50 (nM)] [2],Compound
3.31 nM,293.0556,37.14,COc1ccc2c(c1)[C@]1(C[C@H]1c1ccc3c(Nc4cc(C)nn4C)n[nH]c3c1)C(=O)N2 [Example 74]
157 nM,173.4097,23.28,"COc1ccc2c(c1)[C@]1(C[C@H]1c1ccc3c(Nc4c(OC)cnn4C)n[nH]c3c1)C(=O)N2 [Example 75, (1R,2S)-5′-methoxy-2-{3-[(4-methoxy-1-methyl-1H-pyrazol-5-yl)amino]-1H-indazol-6-yl}spiro[cyclopropane-1,3′-indol]-2′(1′H)-one]"
17.8 nM,1505.334,44.33,"COc1ccc2c(c1)[C@]1(C[C@H]1c1ccc3c(Nc4nnccc4OC)n[nH]c3c1)C(=O)N2 [Example 90, (1R,2S)-5′-methoxy-2-{3-[(4-methozypyridazin-3-yl)amino]-1H-indazol-6-yl}spiro[cyclopropane-1,3′-indol]-2′(1′H)-one]"
8.84 nM,132.8355,76.36,"CCn1nc(C2CC2)cc1Nc1n[nH]c2cc([C@@H]3C[C@@]34C(=O)Nc3ccc(OC)cc34)ccc12 [Example 92, (1R,2S)-2-{3-[(3-cyclopropyl-1-ethyl-1H-pyrazol-5-yl)amino]-1H-indazol-6-yl}-5′-methoxyspiro[cyclopropane-1,3′-indol]-2′(1′H)-one]"
24.3 nM,1733.361,1055.053,"COc1ccc2c(c1)[C@]1(C[C@H]1c1ccc3c(Nc4nc(CC(C)(C)O)nc(N5CCOCC5)c4OC)n[nH]c3c1)C(=O)N2 [Example 93, (1R,2S)-2-(3-{[2-(2-hydroxy-2-methylpropyl)-5-methoxy-6-(morpholin-4-yl)pyrimidin-4-yl]amino}-1H-indazol-6-yl)-5′-methoxyspiro[cyclopropane-1,3′-indol]-2′(1′H)-one]"
6.16 nM,114.7355,74.7,"COc1ccc2c(c1)[C@]1(C[C@H]1c1ccc3c(Nc4cc(N5CCOCC5)nc(C(C)C)n4)n[nH]c3c1)C(=O)N2 [Example 102, (1R,2S)-5′-methoxy-2-(3-{[6-(morpholin-4-yl)-2-(propan-2-yl)pyrimidin-4-yl]amino}-1H-indazol-6-yl)spiro[cyclopropane-l,3′-indol]-2′(1′H)-one]"
2.8 nM,416.6667,977.1102,"COc1ccc2c(c1)[C@]1(C[C@H]1c1ccc3c(Nc4nc(N5CCOCC5)ncc4Cl)n[nH]c3c1)C(=O)N2 [Example 103, (1R,2S)-2-(3-{[5-chloro-2-(morpholin-4-yl)pyrimidin-4-yl]amino}-1H-indazol-6-yl)-5′-methozyspiro[cyclopropano-1,3′-indol]-2′(1′H)-one]"
3.91 nM,679.6315,232.1904,"COc1ccc2c(c1)[C@]1(C[C@H]1c1ccc3c(Nc4nc(C5CNC5)cnc4OC)n[nH]c3c1)C(=O)N2 [Example 110, (1R,2S)-2-(3-{[6-(azetidin-3-yl)-3-methoxypyrazin-2-yl]amino}-1H-indazol-6-yl)-5′-methoxyspiro[cyclopropane-1,3′-indol]-2′(1′H)-one]"
1.53 nM,234.7231,144.4951,"COc1ccc2c(c1)[C@]1(C[C@H]1c1ccc3c(Nc4cc(N5CC(O)C5)nc(C(C)C)n4)n[nH]c3c1)C(=O)N2 [Example 111, (1R,2S)-2-(3-{[6-(3-hydroxyazetidin-1-yi)-2-(propan-2,yl)pyrimidin-4-yl]amino}-1H-indazol-6-yl)-5′-inethoxyspiro[cyclopropane-1,3′-indol]-2′(1′H)-one]"
